Reference: PMC8535176, “Efficacy of epetraborole against Mycobacterium abscessus is increased with norvaline” (PLoS Pathogens, 2021)
In brackets after ≈: the same amount, converted by molar mass. Like-named read-outs stand apart in the source and are kept apart here.

Assays:
Assay in all cases: microbe, parasite or virus in culture
[1] = system: M. avium hominissuis; parameters: Whole-cell growth inhibition, dose-response MIC (MIC90) by resazurin microtiter assay (REMA), fluorescence read-out; details: Mycobacterium avium
[2] = system: T1, M. tuberculosis Erdman; parameters: Whole-cell growth inhibition, dose-response MIC (MIC90) by resazurin microtiter assay (REMA), fluorescence read-out; details: Mycobacterium tuberculosis, ERDMAN
T1 construct: Erdman

[3] = system: M. abscessus; parameters: Whole-cell growth inhibition, dose-response MIC (MIC90) by resazurin microtiter assay (REMA), fluorescence read-out; details: Mycobacteroides abscessus
[4] = system: T2, M. tuberculosis H37Rv; parameters: Whole-cell growth inhibition, dose-response MIC (MIC90) by resazurin microtiter assay (REMA), fluorescence read-out; details: Mycobacterium tuberculosis, H37RV
T2 construct: H37Rv

[5] = system: P. aeruginosa; parameters: Whole-cell growth inhibition, dose-response MIC (MIC90) by resazurin microtiter assay (REMA), fluorescence read-out; details: Pseudomonas aeruginosa
[6] = system: M. avium intracellulaire; parameters: Whole-cell growth inhibition, dose-response MIC (MIC90) by resazurin microtiter assay (REMA), fluorescence read-out; details: Mycobacterium avium
[7] = system: E. coli; parameters: Whole-cell growth inhibition, dose-response MIC (MIC90) by resazurin microtiter assay (REMA), fluorescence read-out; details: Escherichia coli
[8] = system: C. glutamicum; parameters: Whole-cell growth inhibition, dose-response MIC (MIC90) by resazurin microtiter assay (REMA), fluorescence read-out; details: Corynebacterium glutamicum
[9] = system: B. cereus; parameters: Whole-cell growth inhibition, dose-response MIC (MIC90) by resazurin microtiter assay (REMA), fluorescence read-out; details: Bacillus cereus
[10] = system: T3, Mycobacteroides abscessus subsp. abscessus MT16_1065; parameters: species or system M. abscessus; Resazurin microtiter assay (REMA), fluorescence; MIC at 90% growth inhibition from Gompertz fit; details: 48 h, smooth morphotype
T3 construct: MT16_1065
Method: (§1) MIC values were determined using the resazurin microtiter assay (REMA). Cultures were grown to log phase (OD600 of 0.4–0.8) and diluted to OD600 of 0.005. Drugs were prepared in two-fold serial dilutions in 96-well plates with 90 μL of bacteria per well to a final volume of 100 μL. Plates were incubated at 37°C until drug-free wells were turbid (2 days for M. abscessus). Ten μL of resazurin (0.025% wt/vol) was added to each well. Once the drug-free wells turned pink (one doubling time), the fluorescence (ex/em 560nm/590nm) was measured using an Infinite F200 Tecan plate reader. Fluorescence intensities were converted to % viable cells relative to drug-free conditions and fit to the Gompertz equation using GraphPad Prism version 9. MIC values at 90% growth inhibition were determined from the nonlinear regression Gompertz equation. Next, we tested the in vitro activity of EPT against a panel of M. abscessus clinical isolates belonging to the three subspecies of the M. abscessus complex (M. abscessus, M. massiliense, and M. bolletii) with smooth and rough colony morphologies and with different drug susceptibility profiles to various antibiotics. There was no loss in activity against clinical isolates (range of 0.014–0.046 μg/mL) nor different morphologies (S2 Table). To determine the spectrum of activity of EPT, we curated a panel of various mycobacteria and representative gram-positive and gram-negative bacteria. […] Mycobacteria strains were grown in rolling [compound left out] culture at 37°C in Middlebrook 7H9 (Difco) supplemented with 10% albumin dextrose catalase (ADC), 0.2% glycerol, and 0.05% Tween 80 (7H9 complete) or on 7H10 agar plates supplemented with 10% oleic acid ADC and 0.5% glycerol at 37°C. When mentioned, the carbon source was modified from glycerol to acetate or the detergent Tween 80 was removed from the media. Bacillus cereus (clinical isolate), Corynebacterium glutamicum (ATCC 13032), Escherichia coli, and Pseudomonas aeruginosa PAO1 were grown in LB broth. HepG2 cells (ATCC HB-8065) were grown in Dulbecco’s modified Eagle’s medium (DMEM) with phenol red (from Gibco) supplemented with 10% fetal bovine serum at 37°C with 5% CO2.

[11] = system: T4, Mycobacteroides abscessus subsp. bolletii Paris 167; parameters: species or system M. abscessus; Resazurin microtiter assay (REMA), fluorescence; MIC at 90% growth inhibition from Gompertz fit; details: 48 h, rough morphotype
T4 construct: Paris 167
Method: as §1

[12] = system: T5, Mycobacteroides abscessus subsp. abscessus MT16_6490; parameters: species or system M. abscessus; Resazurin microtiter assay (REMA), fluorescence; MIC at 90% growth inhibition from Gompertz fit; details: 48 h, smooth morphotype
T5 construct: MT16_6490
Method: as §1

[13] = system: T6, Mycobacteroides abscessus subsp. bolletii AV; parameters: species or system M. abscessus; Resazurin microtiter assay (REMA), fluorescence; MIC at 90% growth inhibition from Gompertz fit; details: 48 h, smooth morphotype
T6 construct: AV
Method: as §1

[14] = system: T7, Mycobacteroides abscessus subsp. massiliense MT15_1749; parameters: species or system M. abscessus; Resazurin microtiter assay (REMA), fluorescence; MIC at 90% growth inhibition from Gompertz fit; details: 48 h, rough morphotype
T7 construct: MT15_1749
Method: as §1

[15] = system: T8, Mycobacteroides abscessus subsp. massiliense MT15_1748; parameters: species or system M. abscessus; Resazurin microtiter assay (REMA), fluorescence; MIC at 90% growth inhibition from Gompertz fit; details: 48 h, rough morphotype
T8 construct: MT15_1748
Method: as §1

[16] = system: T9, Mycobacteroides abscessus subsp. abscessus ATCC 19977; parameters: species or system M. abscessus; Resazurin microtiter assay (REMA), fluorescence; MIC at 90% growth inhibition from Gompertz fit; details: ATCC19977, 48 h, rough morphotype
T9 construct: ATCC 19977
Method: as §1

COc1nc2ccc(Br)cc2cc1[C@@H](c1ccccc1)[C@@](O)(CCN(C)C)c1cccc2ccccc12 [Bedaquiline]
MIC ([1]; read-out: MIC (µg/mL) / BDQ): 0.038 µg/mL (≈ 0.0684 µM) | MIC ([2]; read-out: MIC (µg/mL) / BDQ): 0.061 µg/mL (≈ 0.11 µM) | MIC ([3]; read-out: MIC (µg/mL) / BDQ): 0.67 µg/mL (≈ 1.21 µM) | MIC ([4]; read-out: MIC (µg/mL) / BDQ): 0.26 µg/mL (≈ 0.468 µM) | MIC ([5]; read-out: MIC (µg/mL) / BDQ): > 7.8 µg/mL | MIC ([6]; read-out: MIC (µg/mL) / BDQ): 0.014 µg/mL (≈ 0.0252 µM) | MIC ([7]; table prints MIC, main text calls the EPT values MIC90, read-out: MIC (µg/mL) / BDQ): > 7.8 µg/mL | MIC ([8]; read-out: MIC (µg/mL) / BDQ): > 7.8 µg/mL | MIC ([9]; read-out: MIC (µg/mL) / BDQ): > 7.8 µg/mL | MIC ([10]; read-out: MIC BDQ): 0.36 mg/L (≈ 0.648 µM) | MIC ([11]; read-out: MIC BDQ): 0.39 mg/L (≈ 0.702 µM) | MIC ([12]; read-out: MIC BDQ): 0.83 mg/L (≈ 1.49 µM) | MIC ([13]; read-out: MIC BDQ): 1.3 mg/L (≈ 2.34 µM) | MIC ([14]; read-out: MIC BDQ): 0.4 mg/L (≈ 0.72 µM) | MIC ([15]; read-out: MIC BDQ): 0.23 mg/L (≈ 0.414 µM) | MIC ([16]; read-out: MIC BDQ): 0.27 mg/L (≈ 0.486 µM)

CO[C@H]1/C=C/O[C@@]2(C)Oc3c(C)c(O)c4c(O)c(c(/C=N/N5CCN(C)CC5)c(O)c4c3C2=O)NC(=O)/C(C)=C\C=C\[C@H](C)[C@H](O)[C@@H](C)[C@@H](O)[C@@H](C)[C@H](OC(C)=O)[C@@H]1C [Rifampicin]
MIC ([1]; read-out: MIC (µg/mL) / RIF): 0.063 µg/mL (≈ 0.0766 µM) | MIC ([2]; read-out: MIC (µg/mL) / RIF): 0.0065 µg/mL (≈ 0.0079 µM) | MIC ([3]; read-out: MIC (µg/mL) / RIF): 9.1 µg/mL (≈ 11.1 µM) | MIC ([4]; read-out: MIC (µg/mL) / RIF): 0.0063 µg/mL (≈ 0.00766 µM) | MIC ([5]; read-out: MIC (µg/mL) / RIF): 15 µg/mL (≈ 18.2 µM) | MIC ([6]; read-out: MIC (µg/mL) / RIF): 0.063 µg/mL (≈ 0.0766 µM) | MIC ([7]; read-out: MIC (µg/mL) / RIF): 3.9 µg/mL (≈ 4.74 µM) | MIC ([8]; read-out: MIC (µg/mL) / RIF): < 0.063 µg/mL | MIC ([9]; read-out: MIC (µg/mL) / RIF): < 0.063 µg/mL | MIC ([10]; read-out: MIC RIF): > 24 mg/L | MIC ([11]; read-out: MIC RIF): 7.4 mg/L (≈ 8.99 µM) | MIC ([12]; read-out: MIC RIF): > 24 mg/L | MIC ([13]; read-out: MIC RIF): > 24 mg/L | MIC ([14]; read-out: MIC RIF): 6.7 mg/L (≈ 8.14 µM) | MIC ([16]; read-out: MIC RIF): 1.8 mg/L (≈ 2.19 µM)

CC[C@H]1OC(=O)[C@H](C)[C@@H](O[C@H]2C[C@@](C)(OC)[C@@H](O)[C@H](C)O2)[C@H](C)[C@@H](O[C@@H]2O[C@H](C)C[C@H](N(C)C)[C@H]2O)[C@](C)(OC)C[C@@H](C)C(=O)[C@H](C)[C@@H](O)[C@]1(C)O [Clarithromycin]
MIC ([1]; read-out: MIC (µg/mL) / CLR): 0.18 µg/mL (≈ 0.241 µM) | MIC ([2]; read-out: MIC (µg/mL) / CLR): > 1.3 µg/mL | MIC ([3]; read-out: MIC (µg/mL) / CLR): 0.9 µg/mL (≈ 1.2 µM) | MIC ([4]; read-out: MIC (µg/mL) / CLR): > 1.3 µg/mL | MIC ([5]; read-out: MIC (µg/mL) / CLR): > 8.2 µg/mL | MIC ([6]; read-out: MIC (µg/mL) / CLR): 0.014 µg/mL (≈ 0.0187 µM) | MIC ([7]; read-out: MIC (µg/mL) / CLR): > 8.2 µg/mL | MIC ([8]; read-out: MIC (µg/mL) / CLR): > 8.2 µg/mL | MIC ([9]; read-out: MIC (µg/mL) / CLR): > 8.2 µg/mL | MIC ([10]; read-out: MIC CLR): 3.4 mg/L (≈ 4.55 µM) | MIC ([11]; read-out: MIC CLR): 2.8 mg/L (≈ 3.74 µM) | MIC ([12]; read-out: MIC CLR): 2.9 mg/L (≈ 3.88 µM) | MIC ([13]; read-out: MIC CLR): 0.15 mg/L (≈ 0.201 µM) | MIC ([14]; read-out: MIC CLR): 0.082 mg/L (≈ 0.11 µM) | MIC ([15]; read-out: MIC CLR): 0.068 mg/L (≈ 0.0909 µM) | MIC ([16]; read-out: MIC CLR): 0.65 mg/L (≈ 0.869 µM)
